Measured values: US11147272B2, “Pyridone compounds and agricultural and horticultural fungicides comprising the same as active ingredients” (MITSUI CHEMICALS AGRO, INC., priority 2017, dated 2021)

Key:
[1] = test system: Magnaporthe grisea; test: whole plant or invertebrate; assay type: in vivo; conditions: Blast on rice; class of control value
[2] = test system: Alternaia brassicicola; test: Test Example C: Alternaria sooty spot on cabbage; assay type: in vivo; conditions: Alternaria sooty spot on cabbage; class of control value
From the text: Seeds of a test plant (cabbage variety: Shikidori) were planted and cultivated until the cotyledons extended.
<Control Value> Control value=100{1−(n/3)}

[3] = test system: Puccinia recondita; test: Test Example E: Brown rust on wheat; assay type: in vivo; conditions: Brown rust on wheat; class of control value
[4] = test system: Phytophthora infestans; test: whole plant or invertebrate; assay type: in vivo; conditions: Late blight on tomato; class of control value
[5] = test system: Botrytis cinerea; test: Test Example B: Gray mold on tomato; conditions: Gray mold on tomato; class of control value
[6] = test system: Plasmopara viticola; test: Test Example G: Downy mildew on vine; conditions: Downy mildew on vine (Neomuscat); 250 ppm spray, 2.5 ml/pot; assessed 7 to 10 days after inoculation
[7] = test system: Colletotrichum orbiculare; test: Test Example H: Anthracnose on cucumber; conditions: Anthracnose on cucumber (Sagami Hanjiro); 250 ppm spray, 2.5 ml/pot; assessed 6 to 10 days after inoculation
[8] = test system: Blumeria graminis f. sp. hordei; test: Test Example D: Powdery mildew on barley; conditions: Powdery mildew on barley; class of control value

Row | SMILES | Test A control value class [1] | Test C control value class [2] | Test E control value class [3] | Test F control value class [4] | Test B control value class [5] | Test G control value class [6] | Test H control value class [7] | Test D control value class [8]
1 | CCn1c(-c2c(F)cc(OC)cc2F)c(CN(OC)C(C)=O)cc(Cl)c1=O [compound 130] | H (more than 50% control value) | H (more than 50% control value) | H (more than 50% control value) | L (50% or less control value) | L (50% or less control value) | H (more than 50% control value) | H (more than 50% control value) | L (50% or less control value)
2 | CCn1c(-c2c(F)cc(OC)cc2F)c(CN(OC)C(=O)OC)cc(Cl)c1=O [compound 131] | H (more than 50% control value) | H (more than 50% control value) | H (more than 50% control value) | L (50% or less control value) | H (more than 50% control value) | H (more than 50% control value) | H (more than 50% control value) | H (more than 50% control value)
3 | CCn1c(-c2c(F)cc(F)cc2F)c(CN(OC)C(C)=O)cc(Cl)c1=O [compound 132] | H (more than 50% control value) | H (more than 50% control value) | L (50% or less control value) | L (50% or less control value) | L (50% or less control value) | L (50% or less control value) | L (50% or less control value) | L (50% or less control value)
4 | CCn1c(-c2c(F)cc(F)cc2F)c(CN(OC)C(=O)OC)cc(Cl)c1=O [compound 133] | H (more than 50% control value) | H (more than 50% control value) | H (more than 50% control value) | L (50% or less control value) | H (more than 50% control value) | H (more than 50% control value) | H (more than 50% control value) | H (more than 50% control value)
5 | CC(C)Cc1ccc(=O)n(C)c1-c1ccc(Cl)cc1Cl [compound 134] | H (more than 50% control value) | L (50% or less control value) | H (more than 50% control value) | L (50% or less control value) | H (more than 50% control value) | H (more than 50% control value) | L (50% or less control value) | H (more than 50% control value)
6 | CCn1c(-c2ccc(Cl)cc2Cl)c(CC(C)C)ccc1=O [compound 135] | H (more than 50% control value) | H (more than 50% control value) | H (more than 50% control value) | L (50% or less control value) | H (more than 50% control value) | H (more than 50% control value) | H (more than 50% control value) | H (more than 50% control value)
7 | CCn1c(-c2ccc(Br)cc2F)c(CC(C)C)ccc1=O [compound 136] | H (more than 50% control value) | L (50% or less control value) | H (more than 50% control value) | L (50% or less control value) | H (more than 50% control value) | H (more than 50% control value) | L (50% or less control value) | H (more than 50% control value)
8 | CC(C)Cc1cc(Cl)c(=O)n(C)c1-c1ccc(Cl)cc1Cl [compound 137] | H (more than 50% control value) | H (more than 50% control value) | H (more than 50% control value) | L (50% or less control value) | H (more than 50% control value) | H (more than 50% control value) | H (more than 50% control value) | H (more than 50% control value)
9 | CC(C)Cc1cc(Br)c(=O)n(C)c1-c1ccc(Cl)cc1Cl [compound 138] | H (more than 50% control value) | H (more than 50% control value) | H (more than 50% control value) | L (50% or less control value) | H (more than 50% control value) | L (50% or less control value) | H (more than 50% control value) | L (50% or less control value)
10 | CCn1c(-c2ccc(Cl)cc2Cl)c(CC(C)C)cc(Cl)c1=O [compound 139] | H (more than 50% control value) | H (more than 50% control value) | H (more than 50% control value) | L (50% or less control value) | H (more than 50% control value) | H (more than 50% control value) | H (more than 50% control value) | H (more than 50% control value)
11 | CCn1c(-c2ccc(Cl)cc2Cl)c(CC(C)C)cc(Br)c1=O [compound 140] | H (more than 50% control value) | H (more than 50% control value) | H (more than 50% control value) | L (50% or less control value) | H (more than 50% control value) | H (more than 50% control value) | H (more than 50% control value) | H (more than 50% control value)
12 | CCn1c(-c2ccc(C)cc2F)c(CC(C)C)ccc1=O [compound 141] | H (more than 50% control value) | H (more than 50% control value) | H (more than 50% control value) | L (50% or less control value) | H (more than 50% control value) | H (more than 50% control value) | L (50% or less control value) | H (more than 50% control value)
13 | CCn1c(-c2ccc(Br)cc2F)c(CC(C)C)cc(Br)c1=O [compound 142] | H (more than 50% control value) | H (more than 50% control value) | H (more than 50% control value) | L (50% or less control value) | H (more than 50% control value) | H (more than 50% control value) | H (more than 50% control value) | H (more than 50% control value)
